Source: US20210330696A1, “A HIGH CAPACITY PLATFORM FOR IMMUNOGENIC CANCER CELL DEATH” (priority 2018, published 2021)
In brackets after ≈: the same amount, converted by molar mass.

Key:
glioblastoma cells = conditions: 2 h after injection; cited from earlier work
DNA = conditions: cited from earlier work
cancer cells = conditions: cited from earlier work
[1] = mouse, in vivo; cited from earlier work
[2] = cited from earlier work
4T1 tumor = assay: 19F MRI of 4T1 tumor infiltration by myeloid cells (V-Sense); format: in vivo; conditions: 48 h post intratumoral injection, compared to PBS
Experimental: FIG. 17. MR imaging of 4T1 tumor infiltration by myeloid cells. The perfluorocarbon emulsion V-Sense was injected intravascularly and carrier macrophages were imaged by 19F MRI 48 h post control or IL-12 intraturrioral injection.
V-sense is a commercial ^19F-perfluorocarbon emulsion used to track macrophage infiltration into inflammatory tissues. Ahrens et al. (2011) successfully quantified V-sense in inflamed tissues of the central nervous system in an […] model of allergic encephalomyelitis, which they correlated with immunohistochemistry to confirm co-localization of V-sense emulsion droplets and macrophages. Hitchens et al. (2011) detected V-sense labeled macrophages in a model of cardiac allograft rejection. In FIG. 12, the ^19F contrast in tumors is shown based on infiltration of V-sense containing macrophages. In vitro fluorescent imaging confirmed V-sense (red) uptake by RAW macrophages (FIG. 15). […] The color spectrum indicates the concentration of V-sense, which is analogous to phagocytic myeloid cell density.

tumor immunocytes = tumor immunocytes by flow cytometry after IL-12; format: in vivo; conditions: 24 h after treatment
Source text: FIGS. 21A-B. Tumor immunocytes. A) Flow cytometry dot blots showing gating for myeloid and T cell populations. B) Percent immunocytes in control vs IL-12 treated tumors.
Tumor phenotyping. Flow cytometry and immunohistochemistry are used to characterize PD-L1 expression and the presence of effector and regulatory T cells, myeloid and DC, vascularity and stromal cells in tumors and lymphatic tissue. Immunosuppressive regulators in the tumor include T regulatory (Treg) and […] (MDSC). Tregs (CD4^+/FoxP3^+) and MDSC [CD11b^+/Gr-1(Ly6-CIG)^+] suppress effective antitumor immune responses. CD4^+ and CD8^+ T cells are the primary adaptive immune cell mediators within the tumor and the proportion of T cell subsets and DC present in the tumor plays a critical role in tumor rejection. […] Single cell suspensions are prepared from tumors and spleen. After Fc receptor blockade with anti-CD16/CD32 antibodies in 1% mouse serum/1 mM EDTA, cells are permeabilized for intracellular staining or stained directly with antibodies identifying discrete immune cell populations, as described below. […] Specificity of binding to naïve or memory/effector cells is evaluated using fluorescent antibodies that recognize CD45RA, CCR7, and FOXP3. […] Apoptotic tumor cells are detected using DeadEnd Colorimetric TUNEL System, and proliferating cells will be identified using Ki-67. […]

O=c1[nH]c(=O)n([C@@H]2O[C@H](CO)[C@@H](O)[C@@H]2F)cc1[124I] [^124I-FIAU, ^124I-2′-fluoro-2′-deoxy-5-iodo-1-beta-D-arabinofurariosyluracil]
increase in reporter expression (glioblastoma cells): 28 fold

N.N.[Cl][Pt][Cl] [cisplatin, cis-diamminedichloroplatinum (II)]
DNA adduct formation relative to oxaliplatin (DNA): 10 times | number of ICD hallmarks stimulated (cancer cells): 2

COc1cccc2c1C(=O)c1c(O)c3c(c(O)c1C2=O)C[C@@](O)(C(=O)CO)C[C@@H]3O[C@H]1C[C@H](N)[C@H](O)[C@H](C)O1 [DOX, doxorubicin]
MTD [1]: 6 mg/kg | IC50 [2]: 0.08 µg/mL (≈ 0.147 µM)

B1: IL-12: Proinflammatory Th1 cytokine interleukin-12 (protein, UniProt P29459 23-219; P29460 23-328, looked up)
Interleukin-12 subunit alpha: RNLPVATPDPGMFPCLHHSQNLLRAVSNMLQKARQTLEFYPCTSEEIDHEDITKDKTSTVEACLPLELTKNESCLNSRETSFITNGSCLASRKTSFMMALCLSSIYEDLKMYQVEFKTMNAKLLMDPKRQIFLDQNMLAVIDELMQALNFNSETVPQKSSLEEPDFYKTKIKLCILLHAFRIRAVTIDRVMSYLNAS
Interleukin-12 subunit beta: IWELKKDVYVVELDWYPDAPGEMVVLTCDTPEEDGITWTLDQSSEVLGSGKTLTIQVKEFGDAGQYTCHKGGEVLSHSLLLLHKKEDGIWSTDILKDQKEPKNKTFLRCEAKNYSGRFTCWWLTTISTDLTFSVKSSRGSSDPQGVTCGAATLSAERVRGDNKEYEYSVECQEDSACPAAEESLPIEVMVDAVHKLKYENYTSSFFIRDIIKPDPPKNLQLKPLKNSRQVEVSWEYPDTWSTPHSYFSLTFCVQVQGKSKREKKDRVFTDKTSATVICRKNASISVRAQDRYYSSSWSEWASVPCS
frequency of phagocytic cells within the tumor periphery (4T1 tumor): increased the frequency of phagocytic cells | CD4+ and CD8+ T cells in the tumor (tumor immunocytes): increases CD4^+ and CD8^+ T cells | MDSC in the tumor (tumor immunocytes): decreases MDSC
